The test system of one test is MCF7. The experiment in a line: Cytotoxicity against human MCF7 cells at 15 uM after 72 hrs by MTT assay relative to control. The format is functional. The following applies: MCF7, 72 h, values are per cent of control. On the technique in general: Tetrazolium assays rely on reduction of a dye to a coloured formazan, in cell work by metabolically active cells.
For test [1], the target named is T1, NAD-dependent protein deacetylase sirtuin-1 (Homo sapiens) (UniProt Q96EB6).
T1 sequence (whole entry): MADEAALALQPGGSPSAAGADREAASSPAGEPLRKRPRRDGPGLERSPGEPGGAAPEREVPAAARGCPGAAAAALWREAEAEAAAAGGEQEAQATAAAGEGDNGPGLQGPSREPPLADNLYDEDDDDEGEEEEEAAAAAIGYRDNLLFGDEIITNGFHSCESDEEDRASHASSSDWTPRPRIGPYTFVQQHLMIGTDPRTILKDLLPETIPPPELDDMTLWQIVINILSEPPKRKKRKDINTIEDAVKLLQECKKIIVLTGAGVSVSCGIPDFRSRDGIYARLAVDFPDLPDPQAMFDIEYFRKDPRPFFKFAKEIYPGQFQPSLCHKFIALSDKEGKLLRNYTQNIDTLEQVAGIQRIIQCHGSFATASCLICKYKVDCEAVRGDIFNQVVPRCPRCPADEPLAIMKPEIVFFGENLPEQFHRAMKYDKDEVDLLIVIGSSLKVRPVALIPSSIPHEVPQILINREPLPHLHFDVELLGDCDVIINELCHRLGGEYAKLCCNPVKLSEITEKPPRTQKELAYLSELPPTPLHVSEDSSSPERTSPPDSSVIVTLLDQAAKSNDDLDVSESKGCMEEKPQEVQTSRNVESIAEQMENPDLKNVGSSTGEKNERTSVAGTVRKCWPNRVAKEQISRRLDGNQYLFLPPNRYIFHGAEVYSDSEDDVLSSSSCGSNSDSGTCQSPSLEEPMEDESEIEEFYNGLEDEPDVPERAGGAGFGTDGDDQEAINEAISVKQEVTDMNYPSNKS
As to the kind of experiment: Inhibition of recombinant GST-SIRT1 (unknown origin) using KI177 as substrate at 50 uM after 45 mins by fluorescence assay.

The target of test [2] is T2, NAD-dependent protein deacetylase sirtuin-2 (Homo sapiens) (UniProt Q8IXJ6).
T2 sequence (whole entry): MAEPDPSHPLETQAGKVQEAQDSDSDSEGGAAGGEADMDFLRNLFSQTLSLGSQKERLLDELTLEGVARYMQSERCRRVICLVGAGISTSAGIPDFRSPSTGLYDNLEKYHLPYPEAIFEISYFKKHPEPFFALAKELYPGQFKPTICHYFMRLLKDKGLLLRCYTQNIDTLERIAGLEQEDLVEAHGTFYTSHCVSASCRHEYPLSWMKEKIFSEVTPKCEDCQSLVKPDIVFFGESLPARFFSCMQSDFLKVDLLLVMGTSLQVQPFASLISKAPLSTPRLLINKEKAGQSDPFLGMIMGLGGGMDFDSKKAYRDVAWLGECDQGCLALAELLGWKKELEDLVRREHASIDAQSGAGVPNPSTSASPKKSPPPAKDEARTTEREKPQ
As to the kind of experiment: Inhibition of recombinant GST-SIRT2 (unknown origin) using KI179 as substrate at 200 uM after 45 mins by fluorescence assay.

Test [3] addresses T3, NAD-dependent protein deacetylase sirtuin-3, mitochondrial (Homo sapiens) (UniProt Q9NTG7).
T3 sequence (whole entry): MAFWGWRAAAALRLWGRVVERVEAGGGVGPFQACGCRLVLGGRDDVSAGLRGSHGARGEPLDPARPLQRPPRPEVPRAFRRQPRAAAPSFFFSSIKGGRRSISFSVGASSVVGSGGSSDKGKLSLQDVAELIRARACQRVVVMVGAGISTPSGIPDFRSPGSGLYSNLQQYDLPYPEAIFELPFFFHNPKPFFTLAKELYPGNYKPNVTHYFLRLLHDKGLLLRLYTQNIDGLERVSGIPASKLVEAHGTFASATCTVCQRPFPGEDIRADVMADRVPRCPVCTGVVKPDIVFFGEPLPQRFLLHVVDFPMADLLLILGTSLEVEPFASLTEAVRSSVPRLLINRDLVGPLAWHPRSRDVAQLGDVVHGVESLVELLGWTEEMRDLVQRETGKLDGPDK
The experiment in a line: Inhibition of recombinant His-SIRT3 (unknown origin) using KI179 as substrate at 200 uM after 45 mins by fluorescence assay.

The nature of test [4]: Cytotoxicity against human H460 cells after 72 hrs by MTT assay. It is filed as functional, cell-based. The following applies: NCI-H460, 72 h.
The next test relates to HepG2. The experiment in a line: Cytotoxicity against human HepG2 cells at 15 uM after 72 hrs by MTT assay relative to control. The format is functional. The following applies: HepG2, 72 h, values are per cent of control.
In test [5] the target is T4, DNA topoisomerase 1 (Homo sapiens) (UniProt P11387).
T4 sequence (whole entry): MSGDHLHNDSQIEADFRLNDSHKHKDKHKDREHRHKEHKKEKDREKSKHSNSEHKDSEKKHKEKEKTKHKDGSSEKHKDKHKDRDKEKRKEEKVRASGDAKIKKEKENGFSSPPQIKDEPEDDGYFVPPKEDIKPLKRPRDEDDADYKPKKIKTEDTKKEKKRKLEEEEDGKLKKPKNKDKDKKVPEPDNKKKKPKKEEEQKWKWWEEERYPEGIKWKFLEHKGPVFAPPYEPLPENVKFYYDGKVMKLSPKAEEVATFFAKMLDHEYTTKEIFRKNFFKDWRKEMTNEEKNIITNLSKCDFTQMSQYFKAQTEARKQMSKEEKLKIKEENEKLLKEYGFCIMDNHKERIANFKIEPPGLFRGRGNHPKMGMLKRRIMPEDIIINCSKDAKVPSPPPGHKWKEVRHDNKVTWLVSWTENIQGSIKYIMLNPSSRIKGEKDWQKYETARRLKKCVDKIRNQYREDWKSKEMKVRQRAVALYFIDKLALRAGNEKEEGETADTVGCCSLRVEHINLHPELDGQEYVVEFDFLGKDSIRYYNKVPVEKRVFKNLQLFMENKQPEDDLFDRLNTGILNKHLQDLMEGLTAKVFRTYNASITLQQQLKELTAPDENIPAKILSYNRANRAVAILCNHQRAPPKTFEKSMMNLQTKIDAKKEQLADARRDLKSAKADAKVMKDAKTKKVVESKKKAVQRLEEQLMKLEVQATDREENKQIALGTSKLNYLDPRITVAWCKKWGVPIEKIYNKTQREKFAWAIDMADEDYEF
The experiment in a line: Inhibition of human recombinant topoisomerase 1-mediated relaxation of supercoiled pBR322 at 50 to 100 uM after 60 mins by agarose gel electrophoresis.

Test [6] deals with T4, DNA topoisomerase 1 (Homo sapiens). As to the kind of experiment: Inhibition of human recombinant topoisomerase 1-mediated relaxation of supercoiled pBR322 at 500 uM after 60 mins by agarose gel electrophoresis.
Test [7] has as its target T3, NAD-dependent protein deacetylase sirtuin-3, mitochondrial (Homo sapiens). The experiment in a line: Inhibition of recombinant His-SIRT3 (unknown origin) using KI179 as substrate at 168 uM after 45 mins by fluorescence assay.
The target in test [8] is T4, DNA topoisomerase 1 (Homo sapiens). As to the kind of experiment: Inhibition of human recombinant topoisomerase 1-mediated DNA cleavage assessed as formation of nicked DNA from supercoiled pBR322 DNA up to 100 uM after 60 mins by agarose gel electrophoresis.
Test [9] concerns the target T2, NAD-dependent protein deacetylase sirtuin-2 (Homo sapiens). The experiment in a line: Inhibition of recombinant GST-SIRT2 (unknown origin) using KI179 as substrate at 168 uM after 45 mins by fluorescence assay.

Structures are written as SMILES. Calls of active or inactive are those of the source. No cut-off for these calls is given here. A value given as a limit tells only on which side of the number the result lay.

As for `COC(=O)[C@H]1Cc2c([nH]c3ccccc23)[C@@H]2N(C)c3ccccc3C(=O)N12`, the viability, % of control at 15 µM was found to be 96% in the test with MCF7 and 90% in the test with HepG2. Further, the inhibition in test [1] was 7.8%; in [2], 78%; in test [3], 17%. Further, it took 24 µM to reach half-maximal inhibition in test [4] (IC50).

For the compound `CNC(=O)[C@@H]1Cc2c([nH]c3ccccc23)[C@H]2N(C)c3ccccc3C(=O)N12`, the viability, % of control at 15 µM in the test on MCF7 came to 94%; in the test on HepG2 it was 101%. The inhibition in [1] amounted to 6.4%; in [2], 62%; in test [3], 26%. In test [4], this compound registered an IC50 of 53 µM.

Regarding `CN1c2ccccc2C(=O)N2[C@@H](C(=O)N3CCCCC3)Cc3c([nH]c4ccccc34)[C@H]12`, the viability, % of control at 15 µM stood at 63% in the test on MCF7 and 75% in the test on HepG2. Moreover, in [4], it took 8.5 µM to reach half-maximal inhibition (IC50).

For the compound `CNC(=O)[C@H]1Cc2c([nH]c3ccccc23)[C@@H]2N(C)c3ccccc3C(=O)N12`, the figures for the viability, % of control at 15 µM with MCF7 and with HepG2 were 108% and 101%, respectively. In addition, the IC50 in test [4] was more than 30 µM.

As for `CN1c2ccccc2C(=O)N2[C@H](C(=O)N3CCSCC3)Cc3c([nH]c4ccccc34)[C@@H]12`, the values for the viability, % of control at 15 µM in the test on MCF7 and in the test with HepG2 were 103% and 90%, respectively. The inhibition in test [1] turned out to be 8.2%; in [2], 35%. In addition, inhibition in test [4] was half-maximal at 86.8 µM (IC50).

Regarding `COC(=O)[C@@H]1Cc2c([nH]c3ccccc23)[C@H]2N(C)c3ccccc3C(=O)N12`, the results for the viability, % of control at 15 µM in the test on MCF7 and in the test with HepG2 were 90% and 101%, respectively. For the same compound, the figures for the inhibition in test [1], in test [2] and in test [3] were 3.3%, 80% and 21%, respectively. Besides, the IC50 in test [4] was found to be 35 µM.

For the compound `CN1c2ccccc2C(=O)N2[C@@H](C(=O)N3CCOCC3)Cc3c([nH]c4ccccc34)[C@H]12`, the viability, % of control at 15 µM in the test on MCF7 was found to be 72%; with HepG2, 94%. This compound had a half-inhibitory concentration (IC50) in test [4] of 58.3 µM.

In the case of `CN1c2ccccc2C(=O)N2[C@H](C(=O)N3CCOCC3)Cc3c([nH]c4ccccc34)[C@@H]12`, the viability, % of control at 15 µM with MCF7 came to 131%; in the test on HepG2, 88%. Further, the inhibition stood at 4.1% in test [1] and 36% in test [2]. Further, the IC50 in test [4] was 73 µM.

Turning to `CN1c2ccccc2C(=O)N2CCc3c([nH]c4ccccc34)[C@@H]21` [EVODIAMINE], the viability, % of control at 15 µM in the test on MCF7 amounted to 51%; in the test with HepG2, 76%. Besides, the inhibition was 1.1% in test [1], 21% in test [7] and 58% in [9]. In addition, in test [4], the IC50 came out at 13.2 µM. Moreover, the inhibition result in test [5] and in [8] was “inactive” each time. Moreover, the inhibition entry in [6] is “Active”.

With `CN1c2ccccc2C(=O)N2[C@H](C(=O)N3CCCCC3)Cc3c([nH]c4ccccc34)[C@@H]12`, the viability, % of control at 15 µM in the test with MCF7 came to 85%; in the test on HepG2, 110%. The inhibition in test [1] was 6.5%; in test [2], 46%. In addition, in test [4], half-maximal inhibition (IC50) required 49 µM.

With `CN1c2ccccc2C(=O)N2CCc3c([nH]c4ccccc34)[C@H]21`, the results for the viability, % of control at 15 µM with MCF7 and in the test with HepG2 were 44% and 69%, respectively. In addition, the inhibition in [1] is 4.2%; in test [7] it was 20%; in test [9], 71%. The compound further yielded an IC50 in [4] of 2.6 µM. The inhibition entry in [5] and in test [8] was “inactive” each time. Moreover, in [6], the inhibition entry is “Active”.

On to `CN1CCN(C(=O)[C@@H]2Cc3c([nH]c4ccccc34)[C@H]3N(C)c4ccccc4C(=O)N23)CC1`, for which the viability, % of control at 15 µM in the test on MCF7 turned out to be 68%; in the test with HepG2, 83%. The inhibition in test [1] worked out at 5.3%; in [2], 43%. The compound also came in with an IC50 in [4] of 66 µM.

Regarding `CN1CCN(C(=O)[C@H]2Cc3c([nH]c4ccccc34)[C@@H]3N(C)c4ccccc4C(=O)N23)CC1`, the viability, % of control at 15 µM in the test with MCF7 was 74%; with HepG2 it was 91%. This compound yielded a half-inhibitory concentration (IC50) in [4] of 55 µM.

With `CN1c2ccccc2C(=O)N2[C@H](C(=O)O)Cc3c([nH]c4ccccc34)[C@@H]12`, the viability, % of control at 15 µM in the test on MCF7 was determined as 128%; in the test on HepG2, 107%. Also, the inhibition in test [1] was 26%; in test [2] it was 60%; in [3] it was 61%. In [4], the IC50 amounted to 60 µM.

For the compound `CN1c2ccccc2C(=O)N2[C@@H](C(=O)O)Cc3c([nH]c4ccccc34)[C@H]12`, the values for the viability, % of control at 15 µM with MCF7 and in the test on HepG2 were 103% and 107%, respectively. The compound also yielded an IC50 in test [4] of more than 30 µM.

For the compound `CN1c2ccccc2C(=O)N2[C@@H](C(=O)N3CCSCC3)Cc3c([nH]c4ccccc34)[C@H]12`, the viability, % of control at 15 µM came to 105% in the test with MCF7 and 89% in the test with HepG2. Also, the IC50 in test [4] is more than 100 µM.

The term inhibition denotes how much of the control response was suppressed. By IC50 is commonly meant the concentration that gives 50% inhibition. A higher IC50 goes with weaker potency.

The values above are taken from ChEMBL document CHEMBL2440052, “Quinazolinecarboline alkaloid evodiamine as scaffold for targeting topoisomerase I and sirtuins” (Bioorg Med Chem, 2013).
